Results reported in patent publication US20140308657A1, “SERINE PROTEASE INHIBITOR KAZAL ANTIBODIES” (priority 2010, published 2014).
Like-named read-outs stand apart in the source and are kept apart here. Where a SMILES comes first, the peptide text is derived from it. The star is where a group is joined. Cbz = O=C(OCc1ccccc1)*; CH2F = FC*

Legend:
prostate tumor cells = settings: cited from earlier work
caspase 3 = assay: Caspase 3 activity in S2-3 and Huh7T cells; type: cell-based, human; settings: 40 hours treatment, caspase 3 kit
Method: FIG. 5B. The activation of caspase 3 (CDCA) in S2-3 cells treated with etoposide but not BFA/CHX/Z-VAD. The S2-3 cell and its parental cell Huh7T were either treated with SPDCA inducer BFA/CHX/ZVAD or CDCA inducer etoposide. The caspase activity was determined after […] treatment by Caspase 3 detection kit (Biovision, Mountain View, Calif.).
The same level of apoptosis induced by etoposide in S2-3 cell and Huh7T cell was confirmed by the examination of caspase 3 activity in these cells. After 40 hours treatment, all cells were lysed in […] lysis buffer. […] lysate of each sample was analyzed for caspase 3 activity test using caspase 3 detected kits [Biovision, Mountain View, Calif.]. […] Additionally, the activity of caspase3 was not increased in the cells, in which SPDCA was induced by BFA/CHX, even by double doses [FIG. 5B, B/C/ZX2].

HepG2.215 and G54 = assay: Etoposide induced CDCA in HepG2.215 and G54 cells; type: cell-based, human; settings: HepG2.215 and G54, data not shown
Method: To study the influence of HCV replication upon SPDCA, G54 and Huh7T cells (its parent cell) were seeded in a 60 mm dish. SPDCA was induced by BFA/CHX/Z-VAD. […] The insensitivity of HCV replicon cell to SPDCA was also seen subsequently by annexin staining. Compared to the parental cells, much fewer HCV expressing cells were stained by annexin after being treated with SPDCA inducers BFA/CHX/Z-VAD [FIG. 8C, Annexin]. DNA fragmentation study also support that the HCV expressing cells were more resistant to apoptosis. 70 hours treatment of BFA/CHX/Z-VAD obviously triggered the DNA fragmentation in Huh7T cell, but not in G54 cells [FIG. 8D]. […] In contrast, both HepG2.215 and G54 are sensitive to CDCA induced by etoposide [data not shown].

Huh7T cells = assay: Etoposide induced CDCA, annexin stain, Huh7T cells; type: cell-based, human; settings: Huh7T cell, 40 hours treatment
Method: (§1) FIG. 5A. S2-3 and Huh7T cells were treated with CDCA inducer 400 μM etoposide. After 40 hours, the cells apoptosis was examined in microscope and stained with annexin.
(§2) 10^5 S2-3 and Huh7T cells were seeded in 60 mm dishes. When the cell reached 90% confluent, CDCA inducer etoposide was added. After 28-40 hours, the cell shrinkage, blebbing and detachment from culture was found in both cell lines. At the same time, the strong fluorescence stain by annexin was also observed in both cell lines [FIG. 5A]. The amount of apoptotic cells in two cell lines was very similar. Around 62% S2-3 cell was stained by annexin, while 58% of Huh7T cell was stained after 40 hours treatment [data not shown].

S2-3 cells = assay: Etoposide induced CDCA, annexin stain, S2-3 cells; type: cell-based, human; settings: S2-3 cell, 40 hours treatment
Method: as §1, §2

SPIK RNA = SPIK RNA level in G54 HCV replicon cells after antiviral treatment; type: cell-based, human; settings: 10^5 IU/ml overnight
Method: (§3) FIG. 7A-7B. SPIK in the HCV expressing cells. SPIK RNA was detected in the cells with/without HCV replicon as before. HCV RNA was defined by the hybridization of membrane with radio-labeled probe specified HCV.
(§4) FIG. 7B—HCV replicon cells were incubated with HCV polymerase inhibitor 888 (2 mM) 2 days (Lines 3 & 4 duplicate) and 10^5 IU/ml interferon-a overnight (Lines 5 & 6 duplicate) or left untreated (Line 1 & 2 duplicate). The suppressions of HCV RNA and SPIK RNA then were analyzed by Northern blot as before. The smear detected by HCV probe under the band of HCV RNA probably was the replication form of HCV.
(§5) Over-expression of SPIK RNA in G54 cells can be abrogated by inhibition of HCV replication. Treatment of HCV replicon cells with either 2 mM of the HCV polymerase inhibitor 888 for two days or 10^5 IU/ml interferon-a overnight has reduced HCV replication by approximately 90% [FIG. 7B, lane 3-6]. This is consistent with previous reports of these antiviral agents (55, 56).

HCV replicon = assay: HCV replication in HCV replicon cells (Northern blot of HCV RNA); type: cell-based; settings: 10^5 IU/ml overnight
Method: as §3, §4, §5

Compound: NCCc1ccc(S(=O)(=O)F)cc1 [AEBSF, 4-2-aminoethyl-benzenesulfonyl fluoride]
- block of FADD induced apoptosis (prostate tumor cells; combining use of Z-VAD and AEBSF): completely blocked

Compound: CC(NC(=O)C(NC(=O)OCc1ccccc1)C(C)C)C(=O)NC(CC(=O)O)C(=O)CF (stereo not drawn) [Z-VAD] (Cbz-Val-Ala-Asp-CH2F; configuration not given here)
- caspase 3 activity (caspase 3): kept unchanged
- block of FADD induced apoptosis (prostate tumor cells; alone): unable to be completely blocked

Compound: COc1cc([C@@H]2c3cc4c(cc3[C@@H](O[C@@H]3O[C@@H]5CO[C@@H](C)O[C@H]5[C@H](O)[C@H]3O)[C@H]3COC(=O)[C@H]23)OCO4)cc(OC)c1O [etoposide]
- sensitivity to CDCA (HepG2.215 and G54): sensitive
- cells stained by annexin (Huh7T cells): 58%
- caspase 3 activity (caspase 3): at the same level in both cells
- cells stained by annexin (S2-3 cells): Around 62%

Compound: interferon-a
- SPIK level (SPIK RNA): correspondingly decreased with HCV RNA
- reduction of HCV replication (HCV replicon): approximately 90%
